Results on seven compounds are retold here after patent publication US7572786B2, “Substituted 1-piperidin-3-yl-4-piperidin-4-yl-piperazine derivatives and their use as neurokinin antagonists” (Janssen Pharmaceutica, N.V., priority 2002, dated 2009).

In one assay the target is T1, NK3 (Homo sapiens, UniProt P29371).
T1 sequence (P29371 1-465): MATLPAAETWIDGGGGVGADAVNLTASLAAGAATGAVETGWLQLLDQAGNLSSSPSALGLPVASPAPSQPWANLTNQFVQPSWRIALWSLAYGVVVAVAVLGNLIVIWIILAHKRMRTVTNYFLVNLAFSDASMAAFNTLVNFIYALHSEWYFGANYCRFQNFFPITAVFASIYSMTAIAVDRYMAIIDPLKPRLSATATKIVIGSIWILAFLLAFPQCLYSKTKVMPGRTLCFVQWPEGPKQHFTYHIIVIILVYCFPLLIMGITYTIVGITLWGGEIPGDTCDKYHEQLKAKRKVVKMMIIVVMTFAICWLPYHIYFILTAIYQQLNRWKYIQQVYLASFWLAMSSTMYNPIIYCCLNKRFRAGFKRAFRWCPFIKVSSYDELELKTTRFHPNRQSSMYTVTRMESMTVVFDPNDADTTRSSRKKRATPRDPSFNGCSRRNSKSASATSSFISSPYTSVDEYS
Nature of the assay: Signal transduction (ST), intracellular Ca++ (FLIPR), NK3. It is filed as cell-based.
Conditions: not given
Regarding `O=C(c1cc(C(F)(F)F)cc(C(F)(F)F)c1)N1CC[C@H](N2CCN(C3CCCN(S(=O)(=O)c4ccc(CCO)s4)C3)CC2)C[C@H]1Cc1ccccc1` (stereo partly drawn) [Compound 86], the “pIC50 NK3” value was determined as 6.3.

Take `COc1cccc(S(=O)(=O)N2CCCC(N3CCN([C@H]4CCN(C(=O)c5cc(C(F)(F)F)cc(C(F)(F)F)c5)[C@H](Cc5ccccc5)C4)CC3)C2)c1` (stereo partly drawn) [Compound 69]: the “pIC50 NK3” value stood at 6.2.

In the case of `O=C(c1cc(C(F)(F)F)cc(C(F)(F)F)c1)N1CC[C@H](N2CCN(C3CCCN(S(=O)(=O)c4cccs4)C3)CC2)C[C@H]1Cc1ccccc1` (stereo partly drawn) [Compound 25], the “pIC50 NK3” value worked out at 7.1.

The same assay, now with this note: read-out: pIC50 NK3 (converted).
Turning to `O=C(c1cc(C(F)(F)F)cc(C(F)(F)F)c1)N1CC[C@H](N2CCN(C3CCCN(C(=O)C4(O)CC4)C3)CC2)C[C@H]1Cc1ccccc1` (stereo partly drawn) [Compound 61], the IC50 is 6.31 µM.

For the compound `O=C(c1cc(C(F)(F)F)cc(C(F)(F)F)c1)N1CC[C@H](N2CCN(C3CCCN(C(CO)c4ccoc4)C3)CC2)C[C@H]1Cc1ccccc1` (stereo partly drawn) [Compound 79], the IC50 was 1 µM.

As for `CC(=O)OCC(c1ccccc1Cl)N1CCCC(N2CCN(C3CCN(C(=O)c4cc(C(F)(F)F)cc(C(F)(F)F)c4)C(Cc4ccccc4)C3)CC2)C1` (stereo not drawn) [Compound 124], the IC50 was 2.51 µM.

As for `O=C(c1ccc(CCO)s1)N1CCCC(N2CCN(C3CCN(C(=O)c4cc(C(F)(F)F)cc(C(F)(F)F)c4)C(Cc4ccccc4)C3)CC2)C1` (stereo not drawn) [Compound 98], the IC50 is 2 µM.

Another assay addresses T2, NK2 (Homo sapiens, UniProt P21452).
T2 sequence (P21452 1-398): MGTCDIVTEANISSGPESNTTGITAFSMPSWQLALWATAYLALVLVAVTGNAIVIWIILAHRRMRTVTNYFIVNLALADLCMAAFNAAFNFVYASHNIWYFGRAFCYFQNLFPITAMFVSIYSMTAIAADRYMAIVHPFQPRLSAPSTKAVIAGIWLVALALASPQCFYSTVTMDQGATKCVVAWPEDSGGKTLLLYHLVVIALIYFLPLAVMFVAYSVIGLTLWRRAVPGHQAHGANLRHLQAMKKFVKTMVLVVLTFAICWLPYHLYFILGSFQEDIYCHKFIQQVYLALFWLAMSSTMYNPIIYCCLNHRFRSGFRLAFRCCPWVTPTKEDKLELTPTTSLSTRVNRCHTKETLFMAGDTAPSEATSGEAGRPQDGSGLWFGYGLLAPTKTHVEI
Nature of the assay: Signal transduction (ST), intracellular Ca++ (FLIPR), NK2. It is filed as cell-based.
Conditions: not given
Here is the method:
[The source words this procedure for another target and reports this target under the same test.] This test evaluates in vitro functional NK1 antagonistic activity. For the measurements of intracellular Ca^++ concentrations the cells were grown on 96-well (black wall/transparent bottom) plates from Costar for 2 days until they reached confluence. The cells were loaded with 2 μM Fluo3 in DMEM containing 0.1% BSA and 2.5 mM probenecid for 1 h at 37° C. […] The cells were preincubated with a concentration range of antagonists for 20 min at RT and Ca^++-signals after addition of the agonists were measured in a Fluorescence Image Plate Reader (FLIPR from Molecular Devices, Crawley, England). The peak of the Ca^++-transient was considered as the relevant signal and the mean values of corresponding wells were analysed as described below.
The sigmoidal dose response curves were analysed by computerised curve-fitting, using the GraphPad Program. […] For antagonist responses the IC50-value was calculated using non-linear regression.
For `O=C(c1cc(C(F)(F)F)cc(C(F)(F)F)c1)N1CC[C@H](N2CCN(C3CCCN(S(=O)(=O)c4ccc(CCO)s4)C3)CC2)C[C@H]1Cc1ccccc1` (stereo partly drawn) [Compound 86], the “pIC50 NK2” value is on record as 6.4.

As to `COc1cccc(S(=O)(=O)N2CCCC(N3CCN([C@H]4CCN(C(=O)c5cc(C(F)(F)F)cc(C(F)(F)F)c5)[C@H](Cc5ccccc5)C4)CC3)C2)c1` (stereo partly drawn) [Compound 69], the “pIC50 NK2” value is on record as 5.6.

For the compound `O=C(c1cc(C(F)(F)F)cc(C(F)(F)F)c1)N1CC[C@H](N2CCN(C3CCCN(S(=O)(=O)c4cccs4)C3)CC2)C[C@H]1Cc1ccccc1` (stereo partly drawn) [Compound 25], the “pIC50 NK2” value was determined as 6.4.

Still in this assay, the particulars now being: read-out: pIC50 NK2 (converted).
Consider `O=C(c1cc(C(F)(F)F)cc(C(F)(F)F)c1)N1CC[C@H](N2CCN(C3CCCN(C(=O)C4(O)CC4)C3)CC2)C[C@H]1Cc1ccccc1` (stereo partly drawn) [Compound 61], for which the IC50 was 3.16 µM.

For `O=C(c1cc(C(F)(F)F)cc(C(F)(F)F)c1)N1CC[C@H](N2CCN(C3CCCN(C(CO)c4ccoc4)C3)CC2)C[C@H]1Cc1ccccc1` (stereo partly drawn) [Compound 79], the IC50 is 1.58 µM.

With `CC(=O)OCC(c1ccccc1Cl)N1CCCC(N2CCN(C3CCN(C(=O)c4cc(C(F)(F)F)cc(C(F)(F)F)c4)C(Cc4ccccc4)C3)CC2)C1` (stereo not drawn) [Compound 124], the IC50 is 5.01 µM.

In the case of `O=C(c1ccc(CCO)s1)N1CCCC(N2CCN(C3CCN(C(=O)c4cc(C(F)(F)F)cc(C(F)(F)F)c4)C(Cc4ccccc4)C3)CC2)C1` (stereo not drawn) [Compound 98], the IC50 was 5.01 µM.

Another assay deals with NK1 (Homo sapiens, UniProt P25103). Nature of the assay: Signal transduction (ST), intracellular Ca++ (FLIPR), NK1 antagonism. The format is cell-based.
Chain of NK1 (P25103 whole entry): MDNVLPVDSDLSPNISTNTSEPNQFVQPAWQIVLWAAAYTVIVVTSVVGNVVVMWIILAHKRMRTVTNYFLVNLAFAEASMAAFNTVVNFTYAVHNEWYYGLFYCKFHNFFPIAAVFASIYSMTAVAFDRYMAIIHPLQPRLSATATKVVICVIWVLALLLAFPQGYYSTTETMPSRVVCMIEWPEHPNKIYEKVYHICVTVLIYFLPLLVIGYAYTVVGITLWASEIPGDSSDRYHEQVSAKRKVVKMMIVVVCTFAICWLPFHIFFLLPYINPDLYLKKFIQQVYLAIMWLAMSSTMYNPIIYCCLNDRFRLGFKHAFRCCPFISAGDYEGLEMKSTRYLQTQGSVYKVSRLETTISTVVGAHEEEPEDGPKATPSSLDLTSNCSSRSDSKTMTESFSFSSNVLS
Conditions: not given
The procedure, abridged:
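Confluent cells were loaded with 2 μM Fluo3 with probenecid for 1 h at 37°C, then preincubated with antagonist concentration ranges for 20 min at RT before agonist addition. Peak FLIPR calcium transient was taken as signal; IC50 from non-linear regression of sigmoidal curves.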
`O=C(c1cc(C(F)(F)F)cc(C(F)(F)F)c1)N1CC[C@H](N2CCN(C3CCCN(S(=O)(=O)c4ccc(CCO)s4)C3)CC2)C[C@H]1Cc1ccccc1` (stereo partly drawn) [Compound 86]: the “pIC50 NK1” value worked out at 8.2.

`COc1cccc(S(=O)(=O)N2CCCC(N3CCN([C@H]4CCN(C(=O)c5cc(C(F)(F)F)cc(C(F)(F)F)c5)[C@H](Cc5ccccc5)C4)CC3)C2)c1` (stereo partly drawn) [Compound 69]: the “pIC50 NK1” value came out at 7.8.

As to `O=C(c1cc(C(F)(F)F)cc(C(F)(F)F)c1)N1CC[C@H](N2CCN(C3CCCN(S(=O)(=O)c4cccs4)C3)CC2)C[C@H]1Cc1ccccc1` (stereo partly drawn) [Compound 25], the “pIC50 NK1” value came out at 7.8.

The assay is the same for the next values; noted with them: read-out: pIC50 NK1 (converted).
Consider `O=C(c1cc(C(F)(F)F)cc(C(F)(F)F)c1)N1CC[C@H](N2CCN(C3CCCN(C(=O)C4(O)CC4)C3)CC2)C[C@H]1Cc1ccccc1` (stereo partly drawn) [Compound 61], for which the IC50 is 0.00794 µM.

Turning to `O=C(c1cc(C(F)(F)F)cc(C(F)(F)F)c1)N1CC[C@H](N2CCN(C3CCCN(C(CO)c4ccoc4)C3)CC2)C[C@H]1Cc1ccccc1` (stereo partly drawn) [Compound 79], the IC50 is 0.0126 µM.

As to `CC(=O)OCC(c1ccccc1Cl)N1CCCC(N2CCN(C3CCN(C(=O)c4cc(C(F)(F)F)cc(C(F)(F)F)c4)C(Cc4ccccc4)C3)CC2)C1` (stereo not drawn) [Compound 124], the IC50 is 0.398 µM.

On to `O=C(c1ccc(CCO)s1)N1CCCC(N2CCN(C3CCN(C(=O)c4cc(C(F)(F)F)cc(C(F)(F)F)c4)C(Cc4ccccc4)C3)CC2)C1` (stereo not drawn) [Compound 98], for which the IC50 was 0.0126 µM.
